{"source": "patent US20260191194A1", "about": "“OXABICYCLOALKANE COMPOUNDS, PREPARATION METHOD THEREFOR, AND HERBICIDAL COMPOSITION AND USE THEREOF” (QINGDAO KINGAGROOT CHEMICAL COMPOUND CO., LTD., priority 2022, published 2026)", "type_in_all_cases": "in vivo", "key": {"Cyperus glomeratus [1]": {"system": "Cyperus glomeratus", "assay": "Activity test of compositions, soil sealing treatment (S)", "details": "21 days after treatment", "experimental": "(§1) The required active ingredient B was purchased from a reagent company or synthesized by a known method. The technical materials were all dissolved with acetone solvents and diluted with an aqueous solution of 0.1% Tween 80 emulsifier, which were to be used immediately after dilution.\n(§2) Weeds were cultivated in a controllable sunlight greenhouse at 20 to 30° C., in natural light, and with relative humidity of 57% to 72%. […] The test soil was quantitatively filled to 3/4 of the pot, and then watered from the bottom of the pot to completely wet the soil to saturation. The test weed seeds were accelerated to just germinate, and then evenly and quantitatively sowed on the soil surface, covered with 0.5-1 cm soil according to the sizes of the seeds, and ready for use 72 hours after sowing.\n(§3) Each treatment was repeated 4 times. Four pots with 20 weed seeds sowed per pot were treated each time.\n(§4) The well-sowed test materials were evenly placed on a platform with an area of 0.5 m^2, and foliage spraying was carried out by the 3WP-2000-type walking spray tower at a dosage of 450 kg/ha and a spray pressure of 0.3 MPa. After all the solution was sprayed, the air valve was closed, and 30 seconds later, the door of the spray tower was opened, and the nutritional bowl was taken out. Then the air valve was opened, and the spray tube was cleaned by spraying 50 ml of water.\n(§5) A method for investigating absolute numbers was employed. Whole seedlings of survival weeds were cut off with a blade along the soil surface, and the fresh weight of the weeds was weighed using an analytical balance. For dead weeds, the fresh weight thereof was zero.\n(§6) The investigation was performed 21 days after the treatment for once in total.\n(§7) The theoretical fresh weight inhibition rate of a mixed combination of each treatment was calculated by the Gowing method (E0=X+Y−X*Y/100). […] An optimal ratio was determined according to the actual control effects, characteristics of herbicides, and balance of the formulation. In the formula, X represents the fresh weight inhibition rate of the active ingredient A in a dosage of P; Y represents the fresh weight inhibition rate of the active ingredient B in a dosage of Q. The statistical results are shown in Table 4."}, "Digitaria ischaemum": {"system": "Digitaria ischaemum", "assay": "Activity test of compositions, soil sealing treatment (S)", "details": "B alone 45 g a.i./ha, 21 days after treatment", "excerpt": "as §1\nThe test soil was quantitatively filled to 3/4 of the pot, and then watered from the bottom of the pot to completely wet the soil to saturation. The test weed seeds were accelerated to just germinate, and then evenly and quantitatively sowed on the soil surface, covered with 0.5-1 cm soil according to the sizes of the seeds, and ready for use 72 hours after sowing.\nas §3, §4, §5, §6, §7"}, "Echinochloa glabrescens [2]": {"system": "Echinochloa glabrescens", "assay": "Activity test of compositions, soil sealing treatment (S)", "details": "21 days after treatment", "experimental": "as §1, §2, §3, §4, §5, §6, §7"}, "Soliva anthemifolia": {"system": "Soliva anthemifolia", "assay": "Activity test of compositions, early post-emergence foliage spray (F-EP)", "details": "21 days after treatment", "experimental": "as §1\n(§8) Weeds were cultivated by a pot culture method. […] Weed seeds with plump and uniform grains were selected, soaked in lukewarm water at 25° C. for 6 hours, and accelerated to germinate in a 28° C. biochemical incubator (in darkness). The weed seeds that had just germinated were evenly placed on the surface of the soil and then covered with 0.5-1 cm soil according to the sizes of seeds.\n(§9) The culture was carried out in a controllable sunlight greenhouse at 20 to 30° C., in natural light, and with relative humidity of 57% to 72%.\nas §3\n(§10) The agents were used once in total in the experiment. In the stage of 1-2 leaves, the weeds were thinned out to maintain 10 strains per treatment for later use.\nas §4, with “well-cultured” for “well-sowed”, “water. The test materials were transferred to and routinely cultured in a greenhouse after the treatment.” for “water.”\nas §5, §6, §7"}, "Cyperus glomeratus [3]": {"system": "Cyperus glomeratus", "assay": "Activity test of compositions, early post-emergence foliage spray (F-EP)", "details": "B alone 900 g a.i./ha, 21 days after treatment", "experimental": "as §1, §8, §9, §3, §10\nas §4, with “well-cultured” for “well-sowed”, “water. The test materials were transferred to and routinely cultured in a greenhouse after the treatment.” for “water.”\nas §5, §6, §7"}, "[4]": {"system": "Echinochloa crus-galli var. austrojaponensis", "assay": "Activity test of compositions, early post-emergence foliage spray (F-EP)", "details": "21 days after treatment", "experimental": "as §1, §8, §9, §3, §10\nas §4, with “well-cultured” for “well-sowed”, “water. The test materials were transferred to and routinely cultured in a greenhouse after the treatment.” for “water.”\nas §5, §6, §7"}, "Oxybasis glauca": {"system": "Oxybasis glauca", "assay": "Activity test of compositions, soil sealing treatment (S)", "details": "21 days after treatment", "experimental": "as §1, §2, §3, §4, §5, §6, §7"}, "Arivela viscosa": {"system": "Arivela viscosa", "assay": "Activity test of compositions, soil sealing treatment (S)", "details": "21 days after treatment", "experimental": "as §1, §2, §3, §4, §5, §6, §7"}, "Echinochloa glabrescens [5]": {"system": "Echinochloa glabrescens", "assay": "Activity test of compositions, early post-emergence foliage spray (F-EP)", "details": "B alone 75 g a.i./ha, 21 days after treatment", "experimental": "as §1, §8, §9, §3, §10\nas §4, with “well-cultured” for “well-sowed”, “water. The test materials were transferred to and routinely cultured in a greenhouse after the treatment.” for “water.”\nas §5, §6, §7"}}, "data": [{"smiles": "COC(=O)c1ccccc1CS(=O)(=O)NC(=O)Nc1nc(OC)cc(OC)n1", "note": "[bensulfuronmethyl, bensulfuron-methyl]", "values": [{"measurement": "Control effect of B applied alone in a corresponding dose", "setting": "Cyperus glomeratus [1]; B alone 7.5 g a.i./ha", "value": 27.5, "unit": "%"}]}, {"smiles": "Cn1nc(C(F)(F)F)c(CS(=O)(=O)C2=NOC(C)(C)C2)c1OC(F)F", "note": "[pyroxasulfone]", "values": [{"measurement": "Control effect of B applied alone in a corresponding dose", "setting": "Digitaria ischaemum", "value": 46.3}]}, {"smiles": "CCN(C(=O)n1nnn(-c2ccccc2Cl)c1=O)C1CCCCC1", "note": "[fentrazamide]", "values": [{"measurement": "Control effect of B applied alone in a corresponding dose", "setting": "Echinochloa glabrescens [2]; B alone 75 g a.i./ha", "value": 40.3}]}, {"smiles": "Cc1cc(Cl)ccc1OCC(=O)OCCCCCC(C)C", "note": "[MCPA-isooctyl]", "values": [{"measurement": "Control effect of B applied alone in a corresponding dose", "setting": "Soliva anthemifolia; B alone 300 g a.i./ha", "value": 65, "unit": "%"}]}, {"smiles": "CCC(=O)Nc1ccc(Cl)c(Cl)c1", "note": "[propanil]", "values": [{"measurement": "Control effect of B applied alone in a corresponding dose", "setting": "Cyperus glomeratus [3]", "value": 19.7}]}, {"smiles": "Cc1ccc(NC(=O)N(C)C)cc1Cl", "note": "[chlorotoluron]", "values": [{"measurement": "pest or weed control at 450 g/ha", "setting": "[4]; Echinochloa crus-galli, 504 h, B alone 450 g a.i./ha, read-out: Control effect of B applied alone in a corresponding dose", "value": 37.6, "unit": "%"}]}, {"smiles": "C#CCN1C(=O)COc2cc(F)c(N3C(=O)C4=C(CCCC4)C3=O)cc21", "note": "[flumioxazin]", "values": [{"measurement": "Control effect of B applied alone in a corresponding dose", "setting": "Oxybasis glauca; B alone 30 g a.i./ha", "value": 55.6}]}, {"smiles": "CSc1nnc(C(C)(C)C)c(=O)n1N", "note": "[metribuzin]", "values": [{"measurement": "pest or weed control at 150 g/ha", "setting": "[4]; Echinochloa crus-galli, 504 h, B alone 150 g a.i./ha, read-out: Control effect of B applied alone in a corresponding dose", "value": 42.9, "unit": "%"}]}, {"smiles": "COc1cnc(OC)n2nc(NS(=O)(=O)c3c(OCC(F)F)cccc3C(F)(F)F)nc12", "note": "[penoxsulam]", "values": [{"measurement": "Control effect of B applied alone in a corresponding dose", "setting": "Cyperus glomeratus [1]; B alone 7.5 g a.i./ha", "value": 26.4, "unit": "%"}]}, {"smiles": "COC(=O)c1sccc1S(=O)(=O)NC(=O)Nc1nc(C)nc(OC)n1", "note": "[thifensulfuronmethyl, thifensulfuron-methyl]", "values": [{"measurement": "Control effect of B applied alone in a corresponding dose", "setting": "Oxybasis glauca; B alone 7.5 g a.i./ha", "value": 68.6}]}, {"smiles": "CCOc1cc(Oc2ccc(C(F)(F)F)cc2Cl)ccc1[N+](=O)[O-]", "note": "[oxyfluorfen]", "values": [{"measurement": "Control effect of B applied alone in a corresponding dose", "setting": "Cyperus glomeratus [1]; B alone 45 g a.i./ha", "value": 37.2, "unit": "%"}]}, {"smiles": "CSc1nc(NC(C)C)nc(NC(C)C)n1", "note": "[prometryn]", "values": [{"measurement": "pest or weed control at 300 g/ha", "setting": "[4]; Echinochloa crus-galli, 504 h, B alone 300 g a.i./ha, read-out: Control effect of B applied alone in a corresponding dose", "value": 41, "unit": "%"}]}, {"smiles": "O=C(Nc1ccc(F)cc1F)c1cccnc1Oc1cccc(C(F)(F)F)c1", "note": "[diflufenican]", "values": [{"measurement": "Control effect of B applied alone in a corresponding dose", "setting": "Arivela viscosa; B alone 52.5 g a.i./ha", "value": 65.8, "unit": "%"}]}, {"smiles": "C[C@@H](Oc1ccc(Oc2nc3ccc(Cl)cc3o2)cc1)C(=O)N(C)c1ccccc1F", "note": "[metamifop]", "values": [{"measurement": "Control effect of B applied alone in a corresponding dose", "setting": "Echinochloa glabrescens [5]", "value": 58.8, "unit": "%"}]}, {"smiles": "CS(=O)(=O)c1ccc(C(=O)C2C(=O)CCCC2=O)c([N+](=O)[O-])c1", "note": "[mesotrione]", "values": [{"measurement": "pest or weed control at 60 g/ha", "setting": "[4]; Echinochloa crus-galli, 504 h, B alone 60 g a.i./ha (with A 60), read-out: Control effect of B applied alone in a corresponding dose", "value": 51.7, "unit": "%"}]}, {"smiles": "CC1=C(c2ccccc2)C(=O)N(C(C)(C)c2cc(Cl)cc(Cl)c2)CO1", "note": "[oxaziclomefone]", "values": [{"measurement": "Control effect of B applied alone in a corresponding dose", "setting": "Cyperus glomeratus [1]; B alone 22.5 g a.i./ha", "value": 58.5, "unit": "%"}]}, {"smiles": "CC(C)Oc1cc(-n2nc(C(C)(C)C)oc2=O)c(Cl)cc1Cl", "note": "[oxadiazon]", "values": [{"measurement": "Control effect of B applied alone in a corresponding dose", "setting": "Cyperus glomeratus [1]; B alone 90 g a.i./ha", "value": 32.4, "unit": "%"}]}, {"smiles": "C#CCN(C)c1c(C#N)cnn1-c1nn2c(c1Cl)CCCC2", "note": "[pyraclonil]", "values": [{"measurement": "Control effect of B applied alone in a corresponding dose", "setting": "Cyperus glomeratus [1]; B alone 45 g a.i./ha", "value": 48.6, "unit": "%"}]}, {"smiles": "CC1(C)CON(Cc2ccc(Cl)cc2Cl)C1=O", "note": "[bixlozone]", "values": [{"measurement": "Control effect of B applied alone in a corresponding dose", "setting": "Arivela viscosa; B alone 120 g a.i./ha", "value": 74.5, "unit": "%"}]}, {"smiles": "Nc1c(Cl)c(F)nc(OCC(=O)O)c1Cl", "note": "[fluroxypyr]", "values": [{"measurement": "Control effect of B applied alone in a corresponding dose", "setting": "Soliva anthemifolia; B alone 75 g a.i./ha", "value": 66.7, "unit": "%"}]}, {"smiles": "CN(C(=O)COc1nc2ccccc2s1)c1ccccc1", "note": "[mefenacet]", "values": [{"measurement": "Control effect of B applied alone in a corresponding dose", "setting": "Echinochloa glabrescens [2]; B alone 150 g a.i./ha", "value": 37.9}]}, {"smiles": "CS(=O)(=O)c1cc(C(F)(F)F)ccc1C(=O)c1cnoc1C1CC1", "note": "[isoxaflutole]", "values": [{"measurement": "pest or weed control at 30 g/ha", "setting": "[4]; Echinochloa crus-galli, 504 h, B alone 30 g a.i./ha (with A 60), read-out: Control effect of B applied alone in a corresponding dose", "value": 47.8, "unit": "%"}]}, {"smiles": "CC1(C)CON(Cc2ccccc2Cl)C1=O", "note": "[clomazone]", "values": [{"measurement": "Control effect of B applied alone in a corresponding dose", "setting": "Arivela viscosa; B alone 75 g a.i./ha", "value": 70.6, "unit": "%"}]}, {"smiles": "Cc1cc(C)n(Cc2c(S(C)(=O)=O)ccc(C(=O)c3c(C)nn(C)c3OC(=O)c3cn(C)nc3C)c2Cl)n1", "note": "[tripyrasulfone]", "values": [{"measurement": "Control effect of B applied alone in a corresponding dose", "setting": "[4]; B alone 60 g a.i./ha", "value": 50.4, "unit": "%"}]}]}
